Assay results: patent US12454559B2, “Activating mitotic checkpoint control mechanisms” (The Regents of the University of Michigan, priority 2015, dated 2025)

Key:
yeast cells = assay: Yeast cell-cycle progression (large-budded / metaphase-arrested cells) after rapamycin-induced anchoring; type: cell-based, budding yeast
Description: Stock solution (1 mg ml^−1) of rapamycin in DMSO was diluted ×1,000 to achieve 1 μg ml^−1 final concentration in all experiments involving rapamycin-induced dimerization.
(§1) The ATP analogues 1-NMPP1 and 1-NAPP1 (final concentration 50 μM) were used to block the activity of mps1-as1 and ipl1-as6, respectively. Cells were first synchronized in S-phase using 100 mM hydroxyl urea (HU) for 2.5 h, washed with YPD, and then released into media containing the appropriate inhibitor for 15 min. This was followed by the addition of rapamycin to the media to anchor Mps1-Frb at Mtw1-C. The bud size was used to monitor cell-cycle progress.
Anaphase cells in cycling cultures will also be scored as large-budded cells by this criterion. In strains carrying fluorescent markers, the separation of the kinetochore clusters or spindle pole bodies was used to determine whether or not the cells arrested in mitosis. Large-budded cells with kinetochore-cluster separation smaller than 1 μm or spindle length smaller than 2 μm were scored as metaphase-arrested cells (ref. 68; herein incorporated by reference in its entirety).

ipl1-as6 = assay: Spindle localization of Sli15-GFP in pre-anaphase cells expressing ipl1-as6; type: cell-based, budding yeast; details: 50 μM
Description: as §1
To study the effect of 1-NAPP1 on ipl1-as6 activity, the spindle localization of Sli15-GFP was measured in pre-anaphase cells67. The bud size was used to find pre-anaphase cells. If the bud was smaller than 50% in size as compared with the mother cell, and contained a short bar of Sli15-GFP located within the mother cell and at the bud neck, then the cell was deemed to be in pre-anaphase.

HeLa cells = assay: Duration of mitosis / mitotic arrest by time-lapse imaging of HeLa cells expressing rapamycin-dimerizable Mps1 and KNL1 phosphodomain (eSAC); type: cell-based, human
From the text: As described elsewhere herein, a kinetochore-independent SAC activator was engineered which comprises a region of KNL1 that contains a series of Mps1 phosphorylation sites, known as “MELT repeats”, which are necessary for SAC activation, but lacks the kinetochore-localization domain at the C-terminus or the newly identified transient localization domain at its N-terminus (FIG. 21). FKBP12 was fused to this minimal KNL1 phosphodomain and FRB to Mps1, and rapamycin was used to induce dimerization of the fusion proteins in HeLa cells (FIGS. 17B, 22). […] These cells maintained an aligned metaphase plate indicating an inability to initiate anaphase and that the observed mitotic arrest was not due to the disruption of kinetochore-microtubule interactions. […] To further ensure kinetochore-independent operation of the dimerized proteins, the kinetochore-localization domain of Mps1 was removed (FIG. 17E). […] Furthermore, individually inhibiting the kinase activity of exogenous Mps1 using an analog-sensitive version of the kinase domain or preventing the phosphorylation of the minimal KNL1 phosphodomain by using a non-phosphorylatable version of the phosphodomain each prevented the rapamycin-induced mitotic arrest (FIG. 23). Thus, the catalytic activity of the Mps1 kinase domain and the Mps1 phosphorylation sites within the minimal phosphodomain are both essential for the rapamycin-induced metaphase arrest. […] The above described system of FKBP12/FRB-dimerizable Mps1 kinase domain and KNL1 phosophodomains is referred to in this example as an ectopic SAC activation system (eSAC).
MELT repeats in the eSAC phosphodomain were phosphorylated only in the presence of rapamycin, and were not phosphorylated if the SAC was activated by creating unattached kinetochores by treatment with the microtubule depolymerizing drug nocodazole (FIG. 18A). Reciprocally, the MELT repeats in endogenous KNL1 were not appreciably phosphorylated in rapamycin-treated cells, but were strongly phosphorylated in nocodazole-treated cells. […]

## CC(C)(C)n1nc(-c2cccc3ccccc23)c2c(N)ncnc21 [1-NAPP1]
Yeast cells; S-phase synchronized ipl1-as6 cells released into 1-NAPP1 and rapamycin
  Effect on SAC activation induced by Mps1 anchored at Mtw1-C: did not have any effect on SAC activation
ipl1-as6
  Inhibition of ipl1-as6 (Sli15-GFP spindle localization): inhibits ipl1-as6

## c1nc2nc(Nc3ccc(N4CCOCC4)cc3)nc(NC3CCCCC3)c2[nH]1 [Reversine]
HeLa cells; HeLa cells in rapamycin-induced arrest, KNL1 phosphodomain-Mps1 dimerization
  Effect on rapamycin-induced mitotic arrest (time until anaphase entry): reversed rapidly
HeLa cells; HeLa cells, Reversine-treated vs untreated, no rapamycin
  Effect on SAC and cell division (duration of mitosis): inactivates the SAC and significantly accelerates cell division

## CC(C)(C)n1nc(Cc2cccc3ccccc23)c2c(N)ncnc21 [1NM-PP1]
HeLa cells; 10 μM with Rapamycin, analog-sensitive Mps1S602A kinase domain with minimal phosphodomain
  Effect on eSAC-induced arrest: abrogated the eSAC-induced arrest
Yeast cells; heterozygous diploids expressing mps1-as1 and Mps1-Frb, 1-NMPP1 15 min, then rapamycin
  Effect on SAC activation by Mps1-Frb anchored at the kinetochore: does not affect SAC activation

B1: Spc105120: 329: minimal, anchorable phosphodomain comprising residues 120-329 of Spc105, contains all 6 MELT motifs (protein)
chain: LVTSTQIDDARTEEKTAAEEDPDTSGMELTEPIVATSDSNKASQHDPTSMEMTEVFPRSIRQKNPDVEGESIESSQQIDDVEAVREETMELTAIHNVHDYDSISEDTVEGEPIDLTEYESKPYVPNSVSRSTGKSSDYSVERSNDKSDLSKSENKTNSSQPMEITDIFHADPQNPMGLHSDNNINDDGNEMELTQIQTNFDRDNHHIDES
modifications: left off: small tags and cut ends
notes: minimal, anchorable phosphodomain comprising residues 120-329 of Spc105, contains all 6 MELT motifs
Yeast cells; anchored to Mps1-Fkbp12 with rapamycin, asynchronously dividing cells
  Cell-cycle arrest / SAC activation when anchored to Mps1: arrested in metaphase
